Legend:
Assay in all cases: KINOMEscan competition binding
Details in all cases: compound 10.0 µM
AURKA (human) = AURKA (human) (UniProt O14965)
BMPR2 (human) = BMPR2 (human) (UniProt Q13873)
CDC42BPB (human) = CDC42BPB (human) (UniProt Q9Y5S2)
CDK7 (human) = CDK7 (human) (UniProt P50613)
CDKL2 (human) = CDKL2 (human) (UniProt Q92772)
CLK3 (human) = CLK3 (human) (UniProt P49761)
CSNK1E (human) = CSNK1E (human) (UniProt P49674)
CaMK1 (human) = CaMK1 (human) (UniProt Q14012)
DAPK3 (human) = DAPK3 (human) (UniProt O43293)
DDR2 (human) = DDR2 (human) (UniProt Q16832)
EIF2AK2 (human) = EIF2AK2 (human) (UniProt P19525)
EPHA3 (human) = EPHA3 (human) (UniProt P29320)
EPHB1 (human) = EPHB1 (human) (UniProt P54762)
EPHB3 (human) = EPHB3 (human) (UniProt P54753)
HIPK1 (human) = HIPK1 (human) (UniProt Q86Z02)
IRAK3 (human) = IRAK3 (human) (UniProt Q9Y616)
[1] = target: JAK1 JH1 catalytic (human) (UniProt P23458)
[2] = target: JAK2 JH1 catalytic (human) (UniProt O60674)
MAP3K9 (human) = MAP3K9 (human) (UniProt P80192)
MAP4K5 (human) = MAP4K5 (human) (UniProt Q9Y4K4)
MAPK1 (human) = MAPK1 (human) (UniProt P28482)
MAPK12 (human) = MAPK12 (human) (UniProt P53778)
MAPK4 (human) = MAPK4 (human) (UniProt P31152)
MARK1 (human) = MARK1 (human) (UniProt Q9P0L2)
MUSK (human) = MUSK (human) (UniProt O15146)
MYLK2 (human) = MYLK2 (human) (UniProt Q9H1R3)
NEK6 (human) = NEK6 (human) (UniProt Q9HC98)
NEK7 (human) = NEK7 (human) (UniProt Q8TDX7)
PHKG2 (human) = PHKG2 (human) (UniProt P15735)
PIM1 (human) = PIM1 (human) (UniProt P11309)
PIP4K2B (human) = PIP4K2B (human) (UniProt P78356)
PRKACA (human) = PRKACA (human) (UniProt P17612)
PRKACB (human) = PRKACB (human) (UniProt P22694)
RIOK2 (human) = RIOK2 (human) (UniProt Q9BVS4)
RIPK2 (human) = RIPK2 (human) (UniProt O43353)
ROS1 (human) = ROS1 (human) (UniProt P08922)
RPS6KA6 KD1 (human) = RPS6KA6 KD1 (human) (UniProt Q9UK32)
SRC (human) = SRC (human) (UniProt P12931)
TLK1 (human) = TLK1 (human) (UniProt Q9UKI8)
TSSK1B (human) = TSSK1B (human) (UniProt Q9BXA7)

Chain of EPHA3 (human) (P29320 whole entry, looked up): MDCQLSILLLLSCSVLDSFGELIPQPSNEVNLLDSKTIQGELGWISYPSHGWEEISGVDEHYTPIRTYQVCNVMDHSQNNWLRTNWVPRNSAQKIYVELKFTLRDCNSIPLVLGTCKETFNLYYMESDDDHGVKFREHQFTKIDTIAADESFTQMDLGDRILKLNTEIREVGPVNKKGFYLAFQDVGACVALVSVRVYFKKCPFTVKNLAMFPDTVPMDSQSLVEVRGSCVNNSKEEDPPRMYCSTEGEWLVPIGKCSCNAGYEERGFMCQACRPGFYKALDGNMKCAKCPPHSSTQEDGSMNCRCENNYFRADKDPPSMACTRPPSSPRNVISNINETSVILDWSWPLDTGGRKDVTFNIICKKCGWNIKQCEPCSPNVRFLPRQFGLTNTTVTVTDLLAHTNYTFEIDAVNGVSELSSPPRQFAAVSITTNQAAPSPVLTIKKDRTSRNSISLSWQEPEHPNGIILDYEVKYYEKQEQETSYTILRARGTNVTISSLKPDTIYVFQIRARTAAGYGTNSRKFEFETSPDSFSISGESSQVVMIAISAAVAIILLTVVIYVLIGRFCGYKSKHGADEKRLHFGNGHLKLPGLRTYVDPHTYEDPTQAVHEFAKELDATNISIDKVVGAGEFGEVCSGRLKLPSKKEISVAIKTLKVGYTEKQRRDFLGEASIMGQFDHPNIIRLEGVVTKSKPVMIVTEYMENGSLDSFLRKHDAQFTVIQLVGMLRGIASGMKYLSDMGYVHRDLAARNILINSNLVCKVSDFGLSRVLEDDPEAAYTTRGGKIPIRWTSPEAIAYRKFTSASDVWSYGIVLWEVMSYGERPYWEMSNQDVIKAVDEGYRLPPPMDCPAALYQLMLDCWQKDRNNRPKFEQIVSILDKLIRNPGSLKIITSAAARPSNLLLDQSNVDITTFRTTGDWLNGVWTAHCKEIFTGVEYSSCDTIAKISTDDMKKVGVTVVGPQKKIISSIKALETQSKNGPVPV
Chain of BMPR2 (human) (Q13873 whole entry, looked up): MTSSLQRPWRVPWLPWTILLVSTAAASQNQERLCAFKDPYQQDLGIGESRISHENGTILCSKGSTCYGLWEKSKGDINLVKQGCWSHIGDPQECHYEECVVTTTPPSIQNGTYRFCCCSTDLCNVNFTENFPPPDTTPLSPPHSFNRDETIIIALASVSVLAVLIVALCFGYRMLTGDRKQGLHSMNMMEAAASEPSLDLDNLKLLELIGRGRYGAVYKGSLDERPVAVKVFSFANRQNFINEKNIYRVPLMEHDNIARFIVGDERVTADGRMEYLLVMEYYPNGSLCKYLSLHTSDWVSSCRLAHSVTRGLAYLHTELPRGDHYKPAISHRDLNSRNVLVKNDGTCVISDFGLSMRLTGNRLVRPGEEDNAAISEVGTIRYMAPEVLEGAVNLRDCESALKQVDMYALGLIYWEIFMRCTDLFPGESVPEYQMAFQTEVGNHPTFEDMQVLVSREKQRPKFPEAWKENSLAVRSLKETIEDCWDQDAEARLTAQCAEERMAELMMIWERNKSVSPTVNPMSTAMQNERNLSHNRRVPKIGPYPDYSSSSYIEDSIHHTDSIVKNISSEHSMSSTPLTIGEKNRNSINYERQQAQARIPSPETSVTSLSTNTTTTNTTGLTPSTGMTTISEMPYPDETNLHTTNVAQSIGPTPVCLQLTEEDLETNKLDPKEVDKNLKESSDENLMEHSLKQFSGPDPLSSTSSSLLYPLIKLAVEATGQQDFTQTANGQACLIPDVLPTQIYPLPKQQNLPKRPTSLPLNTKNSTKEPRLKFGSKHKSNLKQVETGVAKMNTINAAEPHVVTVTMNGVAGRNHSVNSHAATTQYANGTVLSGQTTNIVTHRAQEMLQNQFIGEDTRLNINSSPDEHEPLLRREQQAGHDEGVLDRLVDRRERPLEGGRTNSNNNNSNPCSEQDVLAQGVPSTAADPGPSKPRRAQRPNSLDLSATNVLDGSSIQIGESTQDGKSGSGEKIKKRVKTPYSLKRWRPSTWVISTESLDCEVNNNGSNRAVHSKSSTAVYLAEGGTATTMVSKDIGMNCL
Chain of MARK1 (human) (Q9P0L2 whole entry, looked up): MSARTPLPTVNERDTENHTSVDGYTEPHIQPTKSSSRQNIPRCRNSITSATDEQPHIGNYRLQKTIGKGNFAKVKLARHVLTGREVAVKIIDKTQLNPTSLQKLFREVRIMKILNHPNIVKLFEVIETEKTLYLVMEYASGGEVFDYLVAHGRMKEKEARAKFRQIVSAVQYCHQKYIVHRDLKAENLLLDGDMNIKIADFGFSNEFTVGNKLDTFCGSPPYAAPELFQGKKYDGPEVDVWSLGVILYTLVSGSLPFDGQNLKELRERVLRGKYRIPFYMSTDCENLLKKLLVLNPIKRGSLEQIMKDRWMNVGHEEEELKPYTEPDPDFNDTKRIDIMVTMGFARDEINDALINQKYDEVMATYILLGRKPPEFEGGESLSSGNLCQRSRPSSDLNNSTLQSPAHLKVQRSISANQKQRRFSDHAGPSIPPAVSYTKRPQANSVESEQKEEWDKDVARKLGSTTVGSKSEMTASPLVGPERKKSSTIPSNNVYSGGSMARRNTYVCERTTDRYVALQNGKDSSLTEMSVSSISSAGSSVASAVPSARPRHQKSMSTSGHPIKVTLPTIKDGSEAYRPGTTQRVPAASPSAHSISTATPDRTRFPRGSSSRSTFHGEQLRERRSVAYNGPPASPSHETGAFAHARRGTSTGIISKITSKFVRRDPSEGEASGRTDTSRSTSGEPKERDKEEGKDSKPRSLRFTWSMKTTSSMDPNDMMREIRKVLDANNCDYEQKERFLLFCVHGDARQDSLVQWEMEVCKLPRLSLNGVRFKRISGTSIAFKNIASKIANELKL
Chain of CDK7 (human) (P50613 whole entry, looked up): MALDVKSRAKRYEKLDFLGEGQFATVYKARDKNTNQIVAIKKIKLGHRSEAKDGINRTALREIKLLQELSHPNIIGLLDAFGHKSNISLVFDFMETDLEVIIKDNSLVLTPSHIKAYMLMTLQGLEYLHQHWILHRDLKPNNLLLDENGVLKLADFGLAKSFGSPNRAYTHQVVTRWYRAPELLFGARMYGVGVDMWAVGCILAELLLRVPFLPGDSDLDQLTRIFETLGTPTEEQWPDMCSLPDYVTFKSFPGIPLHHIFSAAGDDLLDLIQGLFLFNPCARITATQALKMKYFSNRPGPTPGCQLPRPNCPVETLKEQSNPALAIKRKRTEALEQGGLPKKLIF
Chain of MAP4K5 (human) (Q9Y4K4 whole entry, looked up): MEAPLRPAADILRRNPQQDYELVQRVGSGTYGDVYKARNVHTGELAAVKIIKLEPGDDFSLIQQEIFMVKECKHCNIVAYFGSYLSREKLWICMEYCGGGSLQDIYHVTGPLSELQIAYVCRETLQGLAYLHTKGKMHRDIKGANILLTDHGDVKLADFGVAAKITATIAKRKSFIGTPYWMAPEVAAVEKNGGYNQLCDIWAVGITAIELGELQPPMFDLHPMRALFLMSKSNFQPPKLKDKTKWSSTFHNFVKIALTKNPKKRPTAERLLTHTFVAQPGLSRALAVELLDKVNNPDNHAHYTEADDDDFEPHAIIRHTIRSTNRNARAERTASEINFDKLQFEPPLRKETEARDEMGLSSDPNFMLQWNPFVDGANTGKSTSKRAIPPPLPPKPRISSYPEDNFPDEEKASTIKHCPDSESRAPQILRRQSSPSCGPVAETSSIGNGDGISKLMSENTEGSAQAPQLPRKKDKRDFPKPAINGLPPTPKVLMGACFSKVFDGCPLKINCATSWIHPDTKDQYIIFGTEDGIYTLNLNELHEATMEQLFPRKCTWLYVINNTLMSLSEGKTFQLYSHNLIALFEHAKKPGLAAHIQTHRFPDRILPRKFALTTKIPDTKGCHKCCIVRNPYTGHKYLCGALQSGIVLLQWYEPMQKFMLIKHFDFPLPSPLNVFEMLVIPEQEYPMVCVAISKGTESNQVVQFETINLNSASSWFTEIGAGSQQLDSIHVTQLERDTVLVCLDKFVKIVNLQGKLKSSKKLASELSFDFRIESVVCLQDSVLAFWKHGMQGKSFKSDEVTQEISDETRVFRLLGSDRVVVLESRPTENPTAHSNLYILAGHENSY
Chain of IRAK3 (human) (Q9Y616 whole entry, looked up): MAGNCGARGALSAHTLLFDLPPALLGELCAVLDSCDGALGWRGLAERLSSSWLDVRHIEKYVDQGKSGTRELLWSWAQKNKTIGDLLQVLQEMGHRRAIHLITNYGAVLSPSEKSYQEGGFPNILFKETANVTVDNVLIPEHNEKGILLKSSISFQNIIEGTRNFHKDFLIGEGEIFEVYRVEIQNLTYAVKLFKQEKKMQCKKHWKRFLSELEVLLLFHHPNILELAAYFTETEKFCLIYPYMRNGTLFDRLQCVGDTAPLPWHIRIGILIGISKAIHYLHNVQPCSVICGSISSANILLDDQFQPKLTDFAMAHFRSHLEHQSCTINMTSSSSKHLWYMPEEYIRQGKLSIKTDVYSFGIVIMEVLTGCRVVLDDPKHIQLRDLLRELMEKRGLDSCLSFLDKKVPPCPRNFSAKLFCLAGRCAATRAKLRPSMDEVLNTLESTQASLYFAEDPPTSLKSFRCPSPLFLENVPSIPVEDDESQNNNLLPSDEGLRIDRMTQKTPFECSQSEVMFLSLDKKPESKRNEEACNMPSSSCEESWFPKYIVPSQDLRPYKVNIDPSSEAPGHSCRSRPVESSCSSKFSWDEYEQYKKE
Chain of AURKA (human) (O14965 whole entry, looked up): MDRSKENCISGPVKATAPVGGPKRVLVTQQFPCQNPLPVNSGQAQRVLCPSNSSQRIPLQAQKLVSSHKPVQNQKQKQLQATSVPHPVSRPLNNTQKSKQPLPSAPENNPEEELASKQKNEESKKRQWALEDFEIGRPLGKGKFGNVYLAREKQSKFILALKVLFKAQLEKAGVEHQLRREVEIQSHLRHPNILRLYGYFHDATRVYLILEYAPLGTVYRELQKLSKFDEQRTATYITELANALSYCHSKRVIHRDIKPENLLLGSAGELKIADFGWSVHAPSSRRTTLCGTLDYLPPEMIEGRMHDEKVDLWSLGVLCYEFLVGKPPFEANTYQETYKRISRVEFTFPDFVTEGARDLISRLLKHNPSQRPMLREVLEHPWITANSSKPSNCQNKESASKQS

Structure (SMILES) | kinase still bound, per cent of control (AURKA (human)) | kinase still bound, per cent of control (BMPR2 (human)) | kinase still bound, per cent of control (CDC42BPB (human)) | kinase still bound, per cent of control (CDK7 (human)) | kinase still bound, per cent of control (CDKL2 (human)) | kinase still bound, per cent of control (CLK3 (human)) | kinase still bound, per cent of control (CSNK1E (human)) | kinase still bound, per cent of control (CaMK1 (human)) | kinase still bound, per cent of control (DAPK3 (human)) | kinase still bound, per cent of control (DDR2 (human)) | kinase still bound, per cent of control (EIF2AK2 (human)) | kinase still bound, per cent of control (EPHA3 (human)) | kinase still bound, per cent of control (EPHB1 (human)) | kinase still bound, per cent of control (EPHB3 (human)) | kinase still bound, per cent of control (HIPK1 (human)) | kinase still bound, per cent of control (IRAK3 (human)) | kinase still bound, per cent of control [1] | kinase still bound, per cent of control [2] | kinase still bound, per cent of control (MAP3K9 (human)) | kinase still bound, per cent of control (MAP4K5 (human)) | further results
Cc1ccc(NC(=O)c2cccc(C(C)(C)C#N)c2)cc1Nc1ccc2ncn(C)c(=O)c2c1 | 100% | 58% | 100% | 100% | 85% | 100% | 100% | 87% | 85% | 21% | 75% | 5.1% | 1% | 0% | 100% | 95% | 100% | 100% | 94% | 59% | kinase still bound, per cent of control (MAPK1 (human)): 100%; kinase still bound, per cent of control (MAPK12 (human)): 45%; kinase still bound, per cent of control (MAPK4 (human)): 100%; kinase still bound, per cent of control (MARK1 (human)): 100%; kinase still bound, per cent of control (MUSK (human)): 92%; kinase still bound, per cent of control (MYLK2 (human)): 100%; kinase still bound, per cent of control (NEK6 (human)): 100%; kinase still bound, per cent of control (NEK7 (human)): 96%; kinase still bound, per cent of control (PHKG2 (human)): 100%; kinase still bound, per cent of control (PIM1 (human)): 100%; kinase still bound, per cent of control (PIP4K2B (human)): 100%; kinase still bound, per cent of control (PRKACA (human)): 100%; kinase still bound, per cent of control (PRKACB (human)): 100%; kinase still bound, per cent of control (RIOK2 (human)): 100%; kinase still bound, per cent of control (RIPK2 (human)): 7%; kinase still bound, per cent of control (ROS1 (human)): 100%; kinase still bound, per cent of control (RPS6KA6 KD1 (human)): 87%; kinase still bound, per cent of control (SRC (human)): 0.55%; kinase still bound, per cent of control (TLK1 (human)): 100%; kinase still bound, per cent of control (TSSK1B (human)): 79%
COc1cc(C(=O)NC2CCN(C)CC2)ccc1Nc1ncc2c(n1)N(C1CCCC1)C(C)CC(=O)N2C (stereo not given) | 100% | 100% | 100% | 100% | 100% | 100% | 100% | 100% | 17% | 100% | 100% | 100% | 100% | 100% | 100% | 100% | 100% | 100% | 100% | 100% | kinase still bound, per cent of control (MAPK1 (human)): 100%; kinase still bound, per cent of control (MAPK12 (human)): 100%; kinase still bound, per cent of control (MAPK4 (human)): 100%; kinase still bound, per cent of control (MARK1 (human)): 100%; kinase still bound, per cent of control (MUSK (human)): 100%; kinase still bound, per cent of control (MYLK2 (human)): 100%; kinase still bound, per cent of control (NEK6 (human)): 100%; kinase still bound, per cent of control (NEK7 (human)): 100%; kinase still bound, per cent of control (PHKG2 (human)): 100%; kinase still bound, per cent of control (PIM1 (human)): 100%; kinase still bound, per cent of control (PIP4K2B (human)): 100%; kinase still bound, per cent of control (PRKACA (human)): 100%; kinase still bound, per cent of control (PRKACB (human)): 100%; kinase still bound, per cent of control (RIOK2 (human)): 100%; kinase still bound, per cent of control (RIPK2 (human)): 100%; kinase still bound, per cent of control (ROS1 (human)): 100%; kinase still bound, per cent of control (RPS6KA6 KD1 (human)): 100%; kinase still bound, per cent of control (SRC (human)): 100%; kinase still bound, per cent of control (TLK1 (human)): 100%; kinase still bound, per cent of control (TSSK1B (human)): 100%
